Laboratory results from the NIST ThermoML archive (doi:10.1021/je060271a).

Conditions: 303.14 K, Liquid, Vibrating tube method

CCCCCCC(=O)OCC(COC(=O)CCCCCC)(COC(=O)CCCCCC)COC(=O)CCCCCC [pentaerythritol tetraheptanoate]
Conditions	mass density [kg/m3]
163.7 kPa	970.9
201.8 kPa	970.9
226 kPa	970.8
241.8 kPa	970.9
250.8 kPa	970.9
258.8 kPa	970.8
267.9 kPa	970.9
279.3 kPa	971
289.8 kPa	970.8
301.4 kPa	970.9
315.8 kPa	970.9
328.9 kPa	970.9
342.6 kPa	970.8
354.2 kPa	971
366.8 kPa	970.9
380 kPa	971
397.2 kPa	971
412.5 kPa	971
432.5 kPa	970.9
450.7 kPa	970.9
470.3 kPa	971
496.8 kPa	971
520.4 kPa	971.1
547 kPa	971.1
581.4 kPa	970.9
613 kPa	971.2
645.8 kPa	971.1
676.4 kPa	971.1
706.7 kPa	971.2
734.4 kPa	971.2
762.1 kPa	971.2
785 kPa	971.2
807.4 kPa	971.1
827.2 kPa	971.2
847.6 kPa	971.2
869.1 kPa	971.2
895.8 kPa	971.3
919.6 kPa	971.2
944.3 kPa	971.2
969.8 kPa	971.3
1002.7 kPa	971.3
1031.7 kPa	971.4
1063.1 kPa	971.4
1101.5 kPa	971.3
1163.5 kPa	971.4
1217.5 kPa	971.4
1278.3 kPa	971.6
1312.2 kPa	971.5
1337.9 kPa	971.6
1347.4 kPa	971.5
1357.1 kPa	971.5
1376.9 kPa	971.5
1461 kPa	971.6
1578.5 kPa	971.7
1661.5 kPa	971.6
1692.7 kPa	971.7
1725.9 kPa	971.9
1765.8 kPa	971.8
1800.2 kPa	971.8
1836.8 kPa	971.9
1873.8 kPa	971.9
1919.1 kPa	972
1958.5 kPa	971.8
2006.7 kPa	971.9
2049 kPa	972.1
2092.9 kPa	971.9
2137.7 kPa	972.1
2193.4 kPa	972
2240.2 kPa	972.1
2293.3 kPa	972.3
2315.9 kPa	972.1
2329.2 kPa	972.2
2344.7 kPa	972.2
2358.2 kPa	972.3
2371.9 kPa	972.1
2388.4 kPa	972.3
2402.1 kPa	972.3
2416.3 kPa	972.3
2433 kPa	972.3
2447.2 kPa	972.3
2464.4 kPa	972.2
2478.9 kPa	972.3
2494 kPa	972.2
2508.9 kPa	972.2
2528 kPa	972.2
2539.8 kPa	972.2
2558.1 kPa	972.4
2573.1 kPa	972.3
2592.1 kPa	972.3
2607.7 kPa	972.4
2623.3 kPa	972.3
2639.6 kPa	972.3
2658.8 kPa	972.5
2675.1 kPa	972.3
2691.8 kPa	972.4
2711.7 kPa	972.4
2728.4 kPa	972.4
2745.4 kPa	972.5
2766 kPa	972.5
2783.2 kPa	972.6
2800.7 kPa	972.5
2821.5 kPa	972.6
2839.7 kPa	972.5
2857.4 kPa	972.6
2879.2 kPa	972.5
2897.6 kPa	972.5
2916.3 kPa	972.5
2935.4 kPa	972.5
2957.6 kPa	972.5
2976.7 kPa	972.5
2995.9 kPa	972.5
3019.1 kPa	972.7
